Assay results published in patent publication US20260224688A1, “HELPER LIPIDS FOR NUCLEIC ACID DELIVERY” (SANOFI PASTEUR INC., priority 2023, published 2026).

Assays:
[1] = Dynamic light scattering of lipid nanoparticles (size, PDI); format: physicochemical
Procedure: (§1) Lipid nanoparticle formulations 3 were prepared by Process A at a molar ratio of 40:1.5:30:28.5 (Cationic Lipid: DMG-PEG2000: Cholesterol: Helper Lipid) with the cationic lipids and helper lipids disclosed in the tables below. The Polydispersity Index (Pdl) of lipid nanoparticles can be determined by diluting the formulation in 10% trehalose at about 0.1 mg/ml mRNA concentration and then measuring the size on Malvern zetasizer. The lipid nanoparticle size can be obtained with Malvern Zetasizer Nano-ZS.
Dynamic light scattering (DLS) measurements were performed using a Malvern Instruments Zetasizer with a backscattering detector angle of 173° and a 4-mW, 633-nm He—Ne laser (Worcestershire, UK). The samples were analyzed by diluting in 10% Trehalose and measuring the size and Poly dispersity Index (PDI) in an optical grade polystyrene cuvette.

[2] = mRNA encapsulation efficiency of lipid nanoparticles; format: physicochemical; settings: for Encapsulation efficiency (EE): LNP with cationic lipid CL-A
Source text: In embodiments, the lipid nanoparticle encapsulates a nucleic acid, optionally an mRNA encoding a peptide or protein. In embodiments, the lipid nanoparticle encapsulates an mRNA encoding a peptide or protein, optionally for use in a vaccine. In embodiments, the peptide is an antigen. As used herein, the phrase “encapsulation percentage” refers to the fraction of therapeutic agent (e.g. mRNA) that is effectively encapsulated within a liposomal-based vehicle (e.g. a lipid nanoparticle) relative to the initial fraction of therapeutic agent present in the lipid phase. In embodiments, the lipid nanoparticles have an encapsulation percentage for mRNA of at least 50%. In embodiments, the lipid nanoparticles have an encapsulation percentage for mRNA of at least 55%. In embodiments, the lipid nanoparticles have an encapsulation percentage for mRNA of at least 60%. In embodiments, the lipid nanoparticles have an encapsulation percentage for mRNA of at least 65%. In embodiments, the lipid nanoparticles have an encapsulation percentage for mRNA of at least 70%. In embodiments, the lipid nanoparticles have an encapsulation percentage for mRNA of at least 75%. In embodiments, the lipid nanoparticles have an encapsulation percentage for mRNA of at least 80%. In embodiments, the lipid nanoparticles have an encapsulation percentage for mRNA of at least 85%. In embodiments, the lipid nanoparticles have an encapsulation percentage for mRNA of at least 90%. In embodiments, the lipid nanoparticles have an encapsulation percentage for mRNA of at least 95%. In embodiments, the encapsulation percentage is calculated by performing the Ribogreen assay (Invitrogen) with and without the presence of 0.1% Triton-X 100.
The lipid nanoparticles in the examples of the present invention were formulated using Process A of WO 2018/089801 (see, e.g., Example 1 and FIG. 1 of WO 2018/089801). Process A (“A”) relates to a conventional method of encapsulating mRNA by mixing mRNA with a mixture of lipids, without first pre-forming the lipids into lipid nanoparticles. In an exemplary process, an ethanolic solution of a mixture of lipids (cationic lipid, phosphatidylethanolamine, cholesterol, and polyethylene glycol-lipid) at a fixed lipid to mRNA ratio were combined with an aqueous buffered solution of target mRNA at an acidic pH under controlled conditions to yield a suspension of uniform LNPs. After ultrafiltration and diafiltration into a suitable diluent system, the resulting nanoparticle suspensions were diluted to final concentration, filtered, and stored frozen at −80° C. until use.
as §1

hEPO [3] = assay: IV EPO expression of LNPs (tail vein injection); format: in vivo, female BALB/cJ mice; settings: cationic lipid CL-0137, helper lipid 30 mol %; 0.017 μg EPO mRNA tail vein; 6 hours; DOPE = 1
Procedure: Lipid nanoparticles were formulated containing the four lipid components shown below at a ratio of 40:30:28.5:1.5, complexed with a hEPO messenger RNA. • Cationic lipid CL-0137, 40 mol % • Helper lipid, 30 mol % • Cholesterol, 28.5 mol % • DMG-PEG-2K (1,2-dimyristoyl-rac-glycero-3-methoxypolyethyleneglycol), 1.5 mol %
EPO expression studies were conducted with female BALB/cJ mice 6-8 weeks of age. Mice were dosed with 0.017 μg EPO mRNA LNPs in a volume of 5 ul by a single tail vein injection. Blood samples were taken 6 hours post injection and hEPO levels were measured in the blood serum of the mice using an ELISA assay according to the manufacture's protocol.

hEPO [4] = assay: IM EPO expression of LNPs containing new helper lipids (hEPO in serum by ELISA); format: in vivo, female BALB/cJ mice; settings: single IM injection; for 24-h EPO: serum 24 hours post injection
Procedure: Lipid nanoparticles were formulated containing the four lipid components shown below at a ratio of 40:30:28.5:1.5, complexed with a hEPO messenger RNA. • Cationic lipid, 40 mol % • Phospholipid (PEA) helper lipid, 30 mol % • Cholesterol, 28.5 mol % • DMG-PEG-2K (1,2-dimyristoyl-rac-glycero-3-methoxypolyethyleneglycol), 1.5 mol % The cationic lipid component of each formulation was selected from the compounds in the table below: […]
EPO expression studies were conducted with female BALB/cJ mice 6-8 weeks of age. Mice were dosed with […] EPO mRNA in 30 μL of LNPs by a single intramuscular (IM) injection into the gastrocnemius leg muscle. Blood samples were taken 6 and 24 hours post injection and hEPO levels were measured in the blood serum of the mice using an ELISA assay according to the manufacture's protocol. WO2022/099003 A1 also describes an in vivo assay for intramuscular administration (e.g. on page 46, paragraph [00206]).

[5] = LNP with cationic lipid CL-A, hEPO mRNA, 40:30:28.5:1.5
[6] = CL-A LNP, 0.1 μg EPO mRNA in 30 μL, serum 6 hours post injection
[7] = CL-B LNP, serum 6 hours post injection

Polydispersity Index (PDI) ([1]; LNP with cationic lipid CL-A) | Size [1, 5] [nm] | PDI ([1]; LNP with cationic lipid CL-B) | Size ([1]; LNP with cationic lipid CL-B) [nm] | PDI ([1]; LNP with cationic lipid CL-C) | Size ([1]; LNP with cationic lipid CL-C) [nm] | Encapsulation efficiency (EE) [2] [%] | EE ([2]; LNP with cationic lipid CL-B) [%] | EE ([2]; LNP with cationic lipid CL-C) [%] | PDI ([1]; LNP with cationic lipid CL-D) | Size ([1]; LNP with cationic lipid CL-D) [nm] | EE ([2]; LNP with cationic lipid CL-D) [%] | Compound | Normalized Mean IV EPO expression (hEPO [3]) | 6-h EPO (hEPO [4]; [6]) [ng/mL] | 6-h EPO (hEPO [4]; [7]) [ng/mL] | 6-h EPO (hEPO [4]; CL-C LNP, (6-h)) [ng/mL] | 6-h EPO (hEPO [4]; CL-C LNP) [ng/mL] | 24-h EPO (hEPO [4]; CL-A LNP) [ng/mL] | 24-h EPO (hEPO [4]; CL-B LNP) [ng/mL]
0.072 | 155 | 0.104 | 117.5 | 0.104 | 117.5 | 93 | 89 | 89 |  |  |  | CCCCCCCCC(CCCCCCCC)C(=O)OCCCCCCC(=O)OCC(COP(=O)(O)OCCN(C)C)OC(=O)CCCCCCOC(=O)C(CCCCCCCC)CCCCCCCC (centres unmarked) [Compound 18, ((3-(((2-(Dimethylamino)ethoxy)(hydroxy)phosphoryl)oxy)propane-1,2-diyl)bis(oxy))bis(7-oxoheptane-7,1-diyl) bis(2-octyldecanoate)] | 4.68 | 30.1 | 23.7 | 28.8 |  |  | 
0.075 | 136 | 0.095 | 112.7 | 0.078 | 110.6 | 94 | 93 | 92 |  |  |  | CCCCCCCCCCC(CCCCCCCCCC)OC(=O)CCCCCCC(=O)OCC(COP(=O)(O)OCCN(C)C)OC(=O)CCCCCCC(=O)OC(CCCCCCCCCC)CCCCCCCCCC (centres unmarked) [Compound 19, O′1,O1-(3-(((2-(dimethylamino)ethoxy)(hydroxy)phosphoryl)oxy)propane-1,2-diyl) 8-di(henicosan-11-yl) di(octanedioate)] | 2.59 | 11.7 | 28.9 | 12.9 |  |  | 
0.046 | 171 | 0.086 | 95.9 | 0.022 | 89.3 | 90 | 83 | 84 | 0.129 | 100.5 | 93 | CCCCCCCCC(CCCCC)COC(=O)CCC(=O)OCC(COP(=O)(O)OCCN(C)C)OC(=O)CCC(=O)OCC(CCCCC)CCCCCCCC (centres unmarked) [Compound 10, O,O′-(3-(((2-(Dimethylamino)ethoxy)(hydroxy)phosphoryl)-oxy)propane-1,2-diyl) bis(2-pentyldecyl) disuccinate)] | 1.72 | 20.227 | 12.9 | 14.8 | 10.3 | 10.447 | 10.4

More lines, now with the values behind:

Compound | Polydispersity Index (PDI) ([1]; LNP with cationic lipid CL-A) | Size [1, 5] [nm] | PDI ([1]; LNP with cationic lipid CL-B) | Size ([1]; LNP with cationic lipid CL-B) [nm] | PDI ([1]; LNP with cationic lipid CL-C) | Size ([1]; LNP with cationic lipid CL-C) [nm] | Encapsulation efficiency (EE) [2] [%] | EE ([2]; LNP with cationic lipid CL-B) [%] | EE ([2]; LNP with cationic lipid CL-C) [%] | PDI ([1]; LNP with cationic lipid CL-D) | Size ([1]; LNP with cationic lipid CL-D) [nm] | EE ([2]; LNP with cationic lipid CL-D) [%] | Normalized Mean IV EPO expression (hEPO [3]) | 6-h EPO (hEPO [4]; [6]) [ng/mL] | 6-h EPO (hEPO [4]; [7]) [ng/mL] | 6-h EPO (hEPO [4]; CL-C LNP, (6-h)) [ng/mL] | 6-h EPO (hEPO [4]; CL-C LNP) [ng/mL] | 24-h EPO (hEPO [4]; CL-A LNP) [ng/mL] | 24-h EPO (hEPO [4]; CL-B LNP) [ng/mL]
CCCCCCCCCC(CCCCCCCCC)C(=O)OCC(COP(=O)(O)OCCN)OC(=O)C(CCCCCCCCC)CCCCCCCCC (centres unmarked) [Compound 3, 3-(((2-Aminoethoxy)(hydroxy)phosphoryl)oxy)propane-1,2-diyl bis(2-nonylundecanoate)] | 0.045 | 137 | 0.101 | 116.4 | 0.038 | 111.9 | 65 | 25 | 88 |  |  |  | 3.32 |  |  | 13.4 | 6.3 |  | 
CCCCCCCCC(CCCCCCCC)OC(=O)CCCCCCCC(=O)OCC(COP(=O)(O)OCCN(C)C)OC(=O)CCCCCCCC(=O)OC(CCCCCCCC)CCCCCCCC (centres unmarked) [Compound 16, O′^1,O^1-(3-(((2-(Dimethylamino)ethoxy)(hydroxy)phosphoryl)oxy)propane-1,2-diyl) 9-di(heptadecan-9-yl) di(nonanedioate)] | 0.052 | 128 | 0.069 | 108.1 | 0.077 | 102.7 | 95 | 94 | 91 |  |  |  | 1.59 | 17.4 | 32.1 | 9.7 |  |  | 
CCCCCCCCC(CCCCCCCC)OC(=O)CCCCCCC(=O)OCC(COP(=O)(O)OCCN(C)CCO)OC(=O)CCCCCCC(=O)OC(CCCCCCCC)CCCCCCCC (centres unmarked) [Compound 25] | 0.121 | 137 | 0.151 | 120.1 | 0.142 | 92.2 | 93 | 95 | 93 |  |  |  | 1.24 | 16.5 | 44.5 | 56.5 |  |  | 
CCCCCCCCC(CCCCCCCC)OC(=O)CCCCCCC(=O)OCC(COP(=O)(O)OCCN)OC(=O)CCCCCCC(=O)OC(CCCCCCCC)CCCCCCCC (centres unmarked) [Compound 6, 2-Aminoethyl (2,3-bis((8-(heptadecan-9-yloxy)-8-oxooctanoyl)oxy)propyl) phosphate] | 0.066 | 159 | 0.049 | 119.9 | 0.037 | 108.9 | 90 | 94 | 94 | 0.063 | 131.5 | 94 | 2.67 |  | 28.4 | 39.9 | 27.1 |  | 16.2
CCCCCCCCOC(=O)CCCCCCCC(=O)OC(COC(=O)CCCCCCC(=O)OC(CCCCCCCC)CCCCCCCC)COP(=O)(O)OCCN(C)C (centres unmarked) [Compound 11, 1-(1-(((2-(Dimethylamino)ethoxy)(hydroxy)phosphoryl)oxy)-3-((8-(heptadecan-9-yloxy)-8-oxooctanoyl)oxy)propan-2-yl) 9-octyl nonanedioate] | 0.068 | 173 | 0.066 | 102.1 | 0.119 | 85.5 | 94 | 88 | 86 | 0.121 | 96.6 | 93 | 1.17 | 19.251 | 5.2 | 8.7 | 7.4 | 11.25 | 4.8
